Common to all, as to assay: inhibition of tumour cell growth, NCI panel, 48 h
The subject of assay [1] is SN12C.
Assay [2] relates to SK-OV-3.
The subject of assay [3] is EKVX.
For assay [4], the system named is HT-29.
Assay [5] has as its system RXF 393.
Assay [6] relates to MCF7.
The test system of assay [7] is M14.
Assay [8] has as its system MDA-MB-231.
The test system of assay [9] is NCI-H23.
The test system of assay [10] is CAKI-1.
Assay [11] concerns SNB-75.
The test system of assay [12] is SF-268.
Assay [13] concerns Malme-3M.
Assay [14] concerns OVCAR-4.
The subject of assay [15] is UACC-257.
For assay [16], the system named is SNB-19.
The test system of assay [17] is COLO 205.
Assay [18] deals with HOP-62.
For assay [19], the system named is OVCAR-8.
Assay [20] deals with SK-MEL-28.

The structures appear in SMILES notation.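 Compound exposure: 48 hours, 5 concentrations, 96-well plates. GI50: concentration for 50% inhibition of growth.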 Active and inactive are the calls of the source. Cut-off read from the data, not from the text of the source: active = GI50 up to about 1.1 µM and inactive = higher.

This note sets out measurements from ChEMBL document CHEMBL1201862, “PubChem BioAssay data set” (2004).

Regarding `C=CCO/N=C/c1cc(/N=C(/S)c2ccoc2C)ccc1Cl`, the GI50 in [1] was 12.8 µM (inactive); in assay [2], 18 µM (inactive); in [3] it was 11.9 µM (inactive); in assay [4] it was 10.3 µM (inactive); in assay [5] it was 21.3 µM (inactive); in assay [6], 9.66 µM (inactive). Besides, the GI50 in [7] is 16.6 µM (inactive); in assay [8], 13.3 µM (inactive); in assay [9], 10 µM (inactive); in assay [10], 9.84 µM (inactive); in [11], 15.7 µM (inactive); in assay [12], 14.8 µM (inactive). Moreover, the GI50 in [13] is 15 µM (inactive); in [14], 5.18 µM (inactive); in [15], 14.9 µM (inactive); in assay [16], 7.28 µM (inactive); in assay [17] it was 12.4 µM (inactive); in [18] it was 14.4 µM (inactive). Also, the GI50 was 13.5 µM (inactive) in assay [19] and 37.8 µM (inactive) in assay [20].

Consider `CN1c2ccc(O)c(O)c2-c2cc(O)cc3c2C1CCC3` (stereo not given), for which the GI50 in assay [1] was 17.5 µM (inactive); in assay [2] it was 51.9 µM (inactive); in assay [3], 20.7 µM (inactive); in [4], 19.1 µM (inactive); in assay [5] it was 7.23 µM (inactive); in [6], 14.2 µM (inactive). Besides, the GI50 is 16.2 µM (inactive) in assay [7]; 23.7 µM (inactive) in [8]; 22.9 µM (inactive) in assay [9]; 20.3 µM (inactive) in assay [10]; 16.3 µM (inactive) in assay [11]; 14.2 µM (inactive) in assay [12]. The GI50 in assay [13] is 15.9 µM (inactive); in assay [14], 13.4 µM (inactive); in [15] it was 19.1 µM (inactive); in assay [16] it was 63.5 µM (inactive); in assay [17], 20.7 µM (inactive); in assay [18] it was 14.1 µM (inactive). Moreover, the GI50 in assay [19] was 19.1 µM (inactive); in [20], 20.8 µM (inactive).

Regarding `O=C1C(Nc2ccc(S(=O)(=O)Nc3cnc4ccccc4n3)cc2)=C/C(=N\c2ccc(S(=O)(=O)Nc3cnc4ccccc4n3)cc2)c2ccccc21`, the GI50 in assay [1] is 16.7 µM (inactive); in [2] it was 17.2 µM (inactive); in assay [3], 18.2 µM (inactive); in assay [4], 20.4 µM (inactive); in assay [5], 17.7 µM (inactive); in assay [6], 19.5 µM (inactive). Besides, the GI50 in assay [7] is 18.5 µM (inactive); in [8], 23.1 µM (inactive); in assay [9] it was 18.7 µM (inactive); in assay [10] it was 16.4 µM (inactive); in assay [11], 14.6 µM (inactive); in [12] it was 20 µM (inactive). For the same molecule, the GI50 is 17.9 µM (inactive) in assay [13]; 20.8 µM (inactive) in assay [14]; 37.7 µM (inactive) in [15]; 15.3 µM (inactive) in assay [16]; 18.5 µM (inactive) in assay [17]; 18.3 µM (inactive) in assay [18]. Further, the GI50 in [19] was 19.8 µM (inactive); in [20] it was 18.1 µM (inactive).

As for `CCCC(=O)Nc1cc(/C=C/C(=O)N2CC(CCl)c3ccc(N)cc32)n(C)c1` (stereo not given), the GI50 was 0.317 µM (active) in [1]; 0.47 µM (active) in assay [2]; 0.368 µM (active) in assay [3]; 0.284 µM (active) in [4]; 0.0474 µM (active) in [5]; 0.122 µM (active) in assay [6]. In addition, the GI50 in assay [7] was 0.337 µM (active); in assay [8], 0.275 µM (active); in [9], 0.145 µM (active); in assay [10], 0.0441 µM (active); in [11], 0.388 µM (active); in assay [12] it was 0.259 µM (active). Also, the GI50 in [13] was 0.18 µM (active); in [14] it was 0.188 µM (active); in assay [15], 0.195 µM (active); in [16] it was 0.406 µM (active); in [17], 0.134 µM (active); in assay [18], 0.484 µM (active). Also, the GI50 was 0.267 µM (active) in assay [19] and 0.292 µM (active) in [20].

Consider `COc1cnnc2c(C)c(-c3ccccc3)nn12`, for which the GI50 in [1] is 30.1 µM (inactive); in assay [2] it was 47.6 µM (inactive); in [3], > 100 µM (inactive); in assay [4] it was > 100 µM (inactive); in assay [5], 0.436 µM (active); in assay [6] it was > 100 µM (inactive). The GI50 is > 68.4 µM (inactive) in assay [7]; > 61.9 µM (inactive) in assay [8]; > 100 µM (inactive) in [9]; 57 µM (inactive) in [10]; 20 µM (inactive) in assay [11]; 82.4 µM (inactive) in [12]. Besides, the GI50 in [13] was 39.6 µM (inactive); in [14] it was > 79.4 µM (inactive); in [15], > 90.8 µM (inactive); in [16], > 77.6 µM (inactive); in assay [17] it was > 100 µM (inactive); in assay [18], > 69.3 µM (inactive). Also, the GI50 was > 100 µM (inactive) in assay [19] and 71.9 µM (inactive) in assay [20].

In the case of `N=C1N(S(=O)(=O)c2ccccc2)[C@@H](Cc2ccccc2)[C@H](c2ccccc2)C1(c1ccccc1)c1ccccc1`, the GI50 was > 100 µM (inactive) in assay [1]; > 100 µM (inactive) in assay [2]; 37.2 µM (inactive) in assay [3]; > 100 µM (inactive) in assay [4]; 63.2 µM (inactive) in [5]; > 100 µM (inactive) in [6]. The GI50 in [7] was > 100 µM (inactive); in assay [8], > 100 µM (inactive); in [9], 41.4 µM (inactive); in assay [10], > 100 µM (inactive); in assay [11], > 100 µM (inactive); in assay [12] it was > 100 µM (inactive). Besides, the GI50 in [13] was > 100 µM (inactive); in [14], > 100 µM (inactive); in assay [15] it was 35.6 µM (inactive); in assay [16], > 100 µM (inactive); in assay [17], 80.7 µM (inactive); in assay [18] it was > 100 µM (inactive). Further, the GI50 in assay [19] is 41 µM (inactive); in [20], > 100 µM (inactive).

For the molecule `OCCOCn1nncc1Cn1ncc2c(O)ncnc21`, the GI50 is > 100 µM (inactive) in [1]; 71.6 µM (inactive) in assay [2]; > 100 µM (inactive) in assay [3]; 40 µM (inactive) in [4]; > 100 µM (inactive) in [5]; 48.8 µM (inactive) in assay [6]. The GI50 in assay [7], in assay [8], in assay [9], in [10], in assay [11] and in assay [12] was > 100 µM (inactive) in each case. Further, the GI50 in [13] was > 100 µM (inactive); in assay [14], > 100 µM (inactive); in assay [15] it was > 100 µM (inactive); in assay [16] it was > 100 µM (inactive); in [17], 97.7 µM (inactive); in [18], > 100 µM (inactive). Moreover, the GI50 in assay [19] and in assay [20] was > 100 µM (inactive) in each case.

With `COc1cccc(C2c3cc4c(cc3OC(C)(N3CCCC3)C2C)OCO4)c1O` (stereo not given), the GI50 is 6.58 µM (inactive) in assay [1]; 3.44 µM (inactive) in assay [2]; 7.91 µM (inactive) in [3]; 2.36 µM (inactive) in assay [4]; 2.89 µM (inactive) in assay [5]; 3.47 µM (inactive) in [6]. The GI50 in assay [7] is 3.08 µM (inactive); in assay [8], 3.01 µM (inactive); in assay [9] it was 3.05 µM (inactive); in assay [10], 5.83 µM (inactive); in [11], 2.3 µM (inactive); in assay [12], 8.22 µM (inactive). The GI50 in assay [13] is 3.89 µM (inactive); in assay [14] it was 13.3 µM (inactive); in assay [15], 5.05 µM (inactive); in assay [16] it was 4.06 µM (inactive); in assay [17] it was 3.13 µM (inactive); in assay [18] it was 7.98 µM (inactive). The results for the GI50 in assay [19] and in assay [20] were 7.87 µM (inactive) and 12.2 µM (inactive), respectively.

In the case of `CC(=O)O[C@H]1C(=O)N(c2cc3c4ccccc4ccc3c3ccccc23)[C@@H]1c1ccccc1`, the GI50 in [1] was 11 µM (inactive); in assay [2], 4.74 µM (inactive); in assay [3], 14.6 µM (inactive); in assay [4], 2.64 µM (inactive); in assay [5], 2.72 µM (inactive); in [6], 3.13 µM (inactive). Moreover, the GI50 was 4.38 µM (inactive) in [7]; 10.9 µM (inactive) in assay [8]; 5.51 µM (inactive) in assay [9]; 4.62 µM (inactive) in assay [10]; 2 µM (inactive) in [11]; 7.24 µM (inactive) in assay [12]. In addition, the GI50 is 5.38 µM (inactive) in [13]; 4.66 µM (inactive) in assay [14]; 4.09 µM (inactive) in assay [15]; 6.79 µM (inactive) in assay [16]; 4.24 µM (inactive) in assay [17]; 5.16 µM (inactive) in assay [18]. For the same molecule, the results for the GI50 in [19] and in [20] were 3.97 µM (inactive) and 10.4 µM (inactive), respectively.

For the molecule `COc1cc2c(/C=C3/C(=O)N(C)c4ccc(O)cc43)c(Cl)[nH]c2cc1C`, the GI50 in assay [1] is 0.776 µM (active); in [2] it was 0.326 µM (active); in assay [3], 1.57 µM (inactive); in [4], 0.401 µM (active); in [5] it was 0.475 µM (active); in [6] it was 0.502 µM (active). Besides, the GI50 in assay [7] is 0.238 µM (active); in [8], 0.738 µM (active); in [9], 0.329 µM (active); in assay [10], 0.394 µM (active); in [11], 0.439 µM (active); in [12], 2.07 µM (inactive). The GI50 in [13] was 0.179 µM (active); in [14], 1.8 µM (inactive); in assay [15], 2.25 µM (inactive); in assay [16], 0.456 µM (active); in [17], 0.414 µM (active); in assay [18], 0.327 µM (active). The values for the GI50 in assay [19] and in assay [20] were 0.597 µM (active) and 2.22 µM (inactive), respectively.
